Measured values reported in patent publication US20110288176A1, “[…] ACID-CONTAINING COMPOSITION FOR PREVENTION OR TREATMENT OF […]-RELATED DISEASES AND METHOD FOR PREVENTION OR TREATMENT OF […]-RELATED DISEASES USING THE SAME” (priority 2008, published 2011).

Target: T1, Transglutaminase 2 (Cavia cutleri, UniProt P08587)
T1 construct: purchased Sigma-Aldrich T5398
T1 sequence (P08587 1-690): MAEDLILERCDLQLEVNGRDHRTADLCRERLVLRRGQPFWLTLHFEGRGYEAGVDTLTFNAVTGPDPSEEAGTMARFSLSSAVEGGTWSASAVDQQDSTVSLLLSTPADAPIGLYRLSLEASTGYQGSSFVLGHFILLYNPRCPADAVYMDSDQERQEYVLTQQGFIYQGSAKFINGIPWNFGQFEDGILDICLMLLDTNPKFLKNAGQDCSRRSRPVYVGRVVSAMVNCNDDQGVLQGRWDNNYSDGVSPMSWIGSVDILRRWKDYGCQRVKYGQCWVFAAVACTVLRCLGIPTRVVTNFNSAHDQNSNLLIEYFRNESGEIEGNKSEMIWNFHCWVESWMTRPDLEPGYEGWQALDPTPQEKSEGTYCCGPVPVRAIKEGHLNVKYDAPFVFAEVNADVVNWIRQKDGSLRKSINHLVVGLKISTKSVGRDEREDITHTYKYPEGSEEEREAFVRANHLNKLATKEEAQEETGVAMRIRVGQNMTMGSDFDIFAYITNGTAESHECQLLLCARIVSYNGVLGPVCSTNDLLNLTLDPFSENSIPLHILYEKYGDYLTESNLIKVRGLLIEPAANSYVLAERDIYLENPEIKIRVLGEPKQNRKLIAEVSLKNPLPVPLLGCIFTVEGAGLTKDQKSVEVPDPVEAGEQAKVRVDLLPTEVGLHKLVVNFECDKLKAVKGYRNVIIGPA
Assay: In vitro assay for inhibition of transglutaminase activity ([1,4-14C]putrescine incorporation into succinylated casein)
Format: biochemical
Settings: for activity of transglutaminase, Mean: mean of three assays
Method: Succinylated casein was purchased from Calbiochem (Cat. No. 573464), and 1 g of the powder was dissolved in 50 ml of a reaction buffer solution containing 5 mM DTT (0.1 M Tris-acetate (pH 8.0), 10 mM CaCl2, 0.15 M NaCl, 1.0 mM EDTA). This solution was stored in a deep freezer for further use. [1,4-^14C] Putrescine dihydrochloride was purchased from GE Healthcare (Cat. No. CFA301), and the stock solution was diluted with distilled water to yield a radiological dose of 5 μCi/ml. Transglutaminase 2 was purchased from Sigma-Aldrich (Cat. No. T5398), and diluted with distilled water to yield a final concentration of 1 unit/ml.
450 μl of succinylated casein solution and 50 μl of [1,4-^14C] putrescine dihydrochloride solution were mixed together to prepare a substrate solution. […] 500 μl of the substrate solution β and 100 μl of sample solution were mixed well, and the mixture was incubated at 37° C. for 2 hrs, before termination with 4.5 ml of cold (4° C.) 7.5% TCA. The final solution was stored at 4° C. for 1 hr. The TCA-protein precipitates were filtered through a GF/glass fiber filter, washed with 25 ml of cold 5% TCA, and dried.

[1] = 5 μM ethacrynic acid, relative to DMSO control (=1.0000)
[2] = 10 μM ethacrynic acid, relative to DMSO control (=1.0000)
[3] = 25 μM ethacrynic acid, relative to DMSO control (=1.0000)
[4] = 50 μM ethacrynic acid, relative to DMSO control (=1.0000)

C=C(CC)C(=O)c1ccc(OCC(=O)O)c(Cl)c1Cl [ethacrynic acid, 2-[2,3-dichloro-4-(2-methylidenebuanoyl)phenoxy]acetic acid]
activity of transglutaminase, Mean [1]: 0.4796
activity of transglutaminase, Assay 1 (5 μM ethacrynic acid, radioactivity of cross-linked protein relative to DMSO control (=1.0000)): 0.5667
activity of transglutaminase, Assay 2 [1]: 0.4572
activity of transglutaminase, Assay 3 [1]: 0.4148
activity of transglutaminase, Mean [2]: 0.3752
activity of transglutaminase, Assay 1 [2]: 0.4319
activity of transglutaminase, Assay 2 [2]: 0.3654
activity of transglutaminase, Assay 3 [2]: 0.3281
activity of transglutaminase, Mean [3]: 0.1935
activity of transglutaminase, Assay 1 [3]: 0.2337
activity of transglutaminase, Assay 2 [3]: 0.1812
activity of transglutaminase, Assay 3 [3]: 0.1656
activity of transglutaminase, Mean [4]: 0.0736
activity of transglutaminase, Assay 1 [4]: 0.0763
activity of transglutaminase, Assay 2 [4]: 0.0799
activity of transglutaminase, Assay 3 [4]: 0.0645
inhibition of transglutaminase activity (in words) (FIG. 1): inhibited in an ethacrynic acid concentration-dependent manner
